Source: PubChem BioAssay (NCI)
Several values for one entry are separate records, joined by “and”; a condition that tells them apart may be missing. Equal entries are not always repeated.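 Step 1: Grow cells in 96-well plates. Step 2: Expose to compound for 48 hours at 5 concentrations. Step 3: Interpolate endpoints linearly; if unreached, use highest concentration. Abbreviation: GI50, concentration required for 50% inhibition of growth. TGI: total growth inhibition.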

Assays:
Test in all cases: NCI anticancer screen, dose series, 48 h
MOLT-4 leukemia = tested on: MOLT-4 leukemia
RXF 393 renal = tested on: RXF 393 renal
OVCAR-3 ovarian = tested on: OVCAR-3 ovarian
K-562 leukemia = tested on: K-562 leukemia
NCI/ADR-RES ovarian = tested on: NCI/ADR-RES ovarian
CCRF-CEM leukemia = tested on: CCRF-CEM leukemia
T-47D breast = tested on: T-47D breast
SK-MEL-5 melanoma = tested on: SK-MEL-5 melanoma
TK-10 renal = tested on: TK-10 renal
OVCAR-4 ovarian = tested on: OVCAR-4 ovarian

Row | Structure (SMILES) | GI50 (MOLT-4 leukemia) [µM] | TGI (MOLT-4 leukemia) [µM] | GI50 (RXF 393 renal) | TGI (RXF 393 renal) | GI50 (OVCAR-3 ovarian) | TGI (OVCAR-3 ovarian) | GI50 (K-562 leukemia) [µM] | TGI (K-562 leukemia) [µM] | GI50 (NCI/ADR-RES ovarian) [µM] | TGI (NCI/ADR-RES ovarian) [µM] | GI50 (CCRF-CEM leukemia) [µM] | TGI (CCRF-CEM leukemia) [µM] | GI50 (T-47D breast) [µM] | TGI (T-47D breast) [µM] | GI50 (SK-MEL-5 melanoma) [µM] | TGI (SK-MEL-5 melanoma) | GI50 (TK-10 renal) [µM] | TGI (TK-10 renal) [µM] | GI50 (OVCAR-4 ovarian) [µM] | TGI (OVCAR-4 ovarian)
1 | O=c1[nH]cc(CO)c(=O)[nH]1 | > 100 | > 100 | > 100 µM | > 100 µM | > 100 µM | > 100 µM | > 100 | > 100 | > 100 | > 100 | > 100 | > 100 | > 100 | > 100 | > 100 | > 100 µM | > 100 | > 100 |  | 
2 | CC(=O)NC1CCCN(O)C(=O)/C=C(/C)CCOC(=O)C(NC(C)=O)CCCN(O)C(=O)/C=C(/C)CCOC(=O)C(NC(C)=O)CCCN(O)C(=O)/C=C(/C)CCOC1=O.[Fe] (centres undefined) | > 100 | > 100 |  |  | > 100 µM | > 100 µM |  |  | > 100 | > 100 | > 100 | > 100 | > 100 | > 100 | > 100 | > 100 µM | > 100 | > 100 | > 100 | > 100 µM
3 | Cc1cc(NS(=O)(=O)c2ccc(NC(=O)COc3ccc(-c4cc5ccccc5[nH]4)cc3)cc2)no1 | 2.05 | 9.72 | 1.24 µM | 2.6 µM | 1.72 µM | 3.75 µM | 2.06 | > 100 | 2.64 | 9.37 | 2.13 | > 100 | 2.75 | 8.56 | 2.34 | 6.84 µM | 2.04 | 5.45 | 1.53 | 3.98 µM
4 | CCCCCCCCn1ccc2cc(NC(=O)Cn3cc(CN4CCC(C)CC4)nn3)ccc21 | 2.02 | 5.55 | 1.5 µM | 3.08 µM | 1.71 µM | 3.19 µM | 1.61 | 3.51 | 1.92 | 3.99 | 2.5 | 9.71 | 1.76 | 4.08 | 1.72 | 3.09 µM | 1.7 | 3.21 | 2.07 | 4.85 µM
5 | Cc1ccc2nc3sc(=O)sc3nc2c1 |  | 50.1 |  | 67.8 µM |  | 27.7 µM |  | 75.6 |  | 30.9 |  | > 100 |  | > 100 |  | 29.1 µM |  | 30 |  | 26.8 µM
6 | O=c1c(-c2ccc3c(c2)OCO3)coc2c(CO)c(O)ccc12 | 30.2 | > 100 | 0.941 µM | 2.29 µM | 2.07 µM | 4.26 µM | 2.87 | > 100 | 3.72 | 21.4 | 3.44 | > 100 | 2.48 | 14.9 | 1.91 | 3.98 µM | 2.28 | 6.78 | 3.39 | 18.1 µM
7 | Cc1ccn2c(-c3csc(Nc4cccc(O)c4)n3)c(C)nc2c1 | 0.591 | 27.9 | 1.27 µM | 7.26 µM | 0.32 µM | 0.914 µM | 0.196 | > 38.2 | 0.957 | > 45.1 | 0.48 | > 33 | 0.878 | 10.8 | 0.478 | 11.1 µM | 4.88 | 24.9 | 2.43 | 53.2 µM
8 | COc1ccc(-c2nnc(Nc3nc(O)c(C4=c5cc(OC(F)(F)F)ccc5=NC4=O)s3)o2)cc1 | 18.5 | 49.3 | 13.9 µM | 29.1 µM | 5.75 µM | 90.8 µM | 14.4 | 30.4 | 20.2 | 75.4 | 25.5 | 51.1 | 69.8 | > 100 | 17.7 | 42.9 µM | 20.5 | 58.2 | 46.3 | > 100 µM
9 | COc1ccc(Oc2nc(Nc3ccc(N4CCOCC4)cc3)ncc2NC(=O)Nc2cc(OC)cc(OC)c2)cc1 | 10.6 | > 33.3 | 1.54 µM | 5.8 µM | 1.41 µM | 5.46 µM | 4.66 | > 33.3 | > 33.3 | > 33.3 | > 33.3 | > 33.3 | 5.13 | > 33.3 | 1.11 | 3.79 µM | 6.58 | > 33.3 | 2.91 | 10.9 µM
10 | Nc1nc2c(c(=O)[nH]1)N=C(COP(=O)(O)OP(=O)(O)O)CN2 |  | > 100 |  | > 100 µM |  |  |  | > 100 |  | > 100 |  | > 100 |  | > 100 |  | > 100 µM |  | > 100 |  | 
11 | Cc1ccc(-c2c3c(N)nc(-c4ccncc4)nc3nc3c2c(C)nn3-c2ccccc2)cc1 | > 37.5 | > 37.5 | 3.88 µM | 33 µM | 7.65 µM | 20.1 µM | 5 | > 37.5 | 7.5 | > 37.5 | 12.6 | > 37.5 | 1.84 | > 37.5 | 10.2 | > 37.5 µM | 9.5 | 25.6 | 7.44 | 33.3 µM
12 | CCOC(=O)C1=C(C)NC(C)=C(C(=O)OCC)C1c1cc(Br)c(O)c(OC)c1 | 3.61 | 52.4 | 1.98 µM | 6.05 µM | 2.34 µM | 5.15 µM |  |  | 2.71 | 9.4 | 3.37 | 15.7 | 8.53 | 46.6 | 3.61 | 14.6 µM | 9.54 | 39.2 | 5.97 | 37 µM
13 | O=Cc1c[nH]c2ccc(-c3csc4ccccc34)cc12 | 3.1 | 19.1 | 1.58 µM | 5.13 µM | 2.01 µM | 5.03 µM | 1.69 | > 100 | 4.09 | > 100 | 2.64 | 10.6 | 9.15 | > 100 | 3.31 | > 100 µM | 3.13 | 16.7 | 5.12 | > 100 µM
14 | C/C(=C\CCc1ccsc1)CC/C=C(\C)CCCN1CCN(CCO)CC1 | 2.48 | 6.29 | 1.82 µM | 5.42 µM | 3.16 µM | 11.2 µM | 1.61 | 4.48 | 3.48 | 13.5 | 2.28 | 6.51 | 2.03 | 5.09 | 1.59 | 2.97 µM | 2.5 | 7.34 | 2.7 | 14.7 µM
15 | S=C(Nc1ccc(Cl)cc1)SC1CCCCC1 |  | 92.4 |  | 58.9 µM |  | 56.9 µM |  | > 100 |  | > 100 |  | > 100 |  | > 100 |  | 30.5 µM |  | > 100 |  | > 100 µM
16 | CCN1CCN(CC(=O)Nc2nc3ccc(NCc4ccc(C)cc4)cc3s2)CC1 | 1.59 | 5.99 | 1.99 µM | 8.5 µM | 4.93 µM | 13.7 µM | 0.949 | 2.09 | 5.98 | 21.6 | 1.49 | 6.3 | 1.6 | 7.29 | 0.975 | 2.01 µM | 7.54 | 15.1 | 6.24 | 16.2 µM
17 | NC(Cc1ccc(O)cc1)C(=O)N/N=C/c1ccc(N(CCCl)CCCl)cc1 (centres undefined) | 0.454 | > 100 | 20.6 µM | > 100 µM | 14.2 µM | 62 µM | 3.59 | > 100 | 17.3 | > 100 | 0.231 | > 100 | 10.1 | > 100 | 19.5 | > 100 µM | 25.2 | > 100 | 28.4 | > 100 µM
18 | Cc1cc(N2CCN(C)CC2)nc(N(CCNc2ccnc3cc(Cl)ccc23)Cc2ccco2)n1 | 2.8 | 10.9 | 1.82 µM | 4.88 µM | 2.62 µM | 9.95 µM | 1.59 | 4.78 | 3.1 | 14.8 | 3.37 | 10.2 | 2.07 | 6.41 | 1.77 | 3.24 µM | 2.8 | 11.4 | 4.91 | 18.2 µM
19 | COC(=O)c1c2c(c(C)[n+]([O-])c1C)C(=O)C=C(NCc1ccc(Br)cc1)C2=O | 0.87 | 3.99 | 1.09 µM | 2.54 µM | 0.252 µM | 0.845 µM | 0.0472 | > 100 | 0.332 | 3.31 | 0.669 |  | 0.141 | 2.09 | 0.201 | 0.435 µM | 2.27 | 5.88 | 0.181 | 1.04 µM
20 | O=C1C=CC(=O)c2c1cc1ccccc1c2O |  |  |  | 4.98 µM |  | 4.8 µM |  | 4.85 |  | 25.8 |  | 5.91 |  | 3.49 |  | 24.5 µM |  | 11 |  | 5.67 µM
21 | CC[C@@]1(O)C(=O)OCc2c1cc1n(c2=O)Cc2cc3c(Cl)c4c(cc3nc2-1)OCO4 | < 0.001 |  | 0.0371 µM and 0.014 µM | 2.22 µM and 0.23 µM | 0.653 µM and 1.77 µM | > 100 µM | < 0.001 | > 100 | < 0.001 |  | < 0.001 | > 100 | < 0.001 | > 100 | < 0.001 | 0.0323 µM and 0.159 µM |  | 10.6 |  | 
22 | O=S1CCN(Cc2ccc(-c3ccc4ncnc(Nc5ccc(OCc6ccccc6)c(F)c5)c4c3)o2)CC1 | 8.76 | > 25 | 4.45 µM | 13.2 µM | 7.93 µM | > 25 µM | 11.9 | > 25 | 7.36 | > 25 | 8.82 | > 25 | 3.22 | > 19.2 | 3.44 | 7 µM | 0.232 | > 25 | 5.75 | > 25 µM
23 | [CH3][Sn]([CH3])([CH3])[O]C(=O)C(O)c1ccccc1 (centres undefined) | 4.86 | > 100 | 3 µM | 7.43 µM | 5.38 µM | 66.2 µM | 5.27 | > 100 | 6.39 | 79.5 | 4.84 | > 73.5 | 12.7 | > 100 | 1.83 | 3.35 µM | > 59.3 | > 100 | 7.51 | > 100 µM
24 | CCOC(=O)c1c(C(F)(F)F)n([O-])c2ccc(Cl)cc2[n+]1=O | 2.32 | 5.18 | 1.82 µM | 3.77 µM | 2.11 µM | 3.93 µM | 2.2 | 4.37 | 2.8 | 6 | 1.77 | 3.99 | 2.03 | 4.38 | 1.51 | 2.96 µM | 1.6 | 3.23 | 2.16 | 5.73 µM
25 | COc1cc(-c2nccc3[nH]c(-c4cccc5[nH]ccc45)nc23)cc(OC)c1OC | < 0.01 | 13.2 |  |  | < 0.01 µM | 11 µM |  |  | < 0.01 | 18.1 | < 0.01 | 12 | 4.94 | 27.3 | < 0.01 | 0.0108 µM | 12.1 | 24.8 | < 0.01 | 16.2 µM
26 | NC(Cn1ccc(=O)c(O)c1)C(=O)O (centres undefined) |  | > 100 |  | > 100 µM |  | > 100 µM |  |  |  | > 100 |  | > 100 |  | > 100 |  | > 100 µM |  | > 100 |  | > 100 µM
27 | O=C1/C(=C\c2ccc([N+](=O)[O-])cc2)CS(=O)(=O)C/C1=C/c1ccc([N+](=O)[O-])cc1 |  |  |  | 1.45 µM | 0.0761 µM | 0.329 µM and 0.754 µM |  | > 100 | 0.315 | 3.15 | 0.0128 | 0.133 | 0.446 | 2.95 | 0.4 | 3.03 µM | 0.992 | 2.97 | 0.207 | 0.612 µM and 1.37 µM
